This note sets out measurements from US7173014B2, “HIV-specific synthetic oligonucleotides and methods of their use” (priority 1997, dated 2007).

In series [1] the test system is HIV-1 (IIIB, RF and SK1). Briefly: XTT-based anti-HIV assay, laboratory strains of HIV-1. The series is classed as cell-based. From the text: The initial experiment performed involved evaluation of Oligos 12, 32, and 41 against three laboratory strains of HIV-1 (IIIB, RF and SK1) and one strain of HIV-2 (ROD) in parallel with the positive control compound ddC in the XTT-based anti-HIV assay. All these oligonucleotides are active against both HIV-1 and HIV-2.
CEM-SS sells (AIDS Research and Reference Reagent Program, NIH) or other established human T cell lines used in these experiments were passaged in T-150 flasks for use in the assay. On the day preceding the assay, the cells were split 1:2 to assure they would be in an exponential growth phase at time of infection. On the day of assay the cells were washed twice with tissue culture medium and resuspended in fresh tissue cultures medium. Total cell and viability counting was performed using a hemacytometer and trypan blue dye exclusion. Cell viability was greater than 95% for the cells to be utilized in the assay. The cells were pelleted and resuspended at 2.5×10^4 cells per ml in tissue culture medium. […]
A pretitered aliquot of virus was removed from the freezer −80° C.) and allowed to thaw slowly to room temperature in a biological safety cabinet. The virus was resuspended and diluted into tissue culture medium such that the amount of virus added to each well in a volume of 50 μl will be the amount determined to give complete cell killing at 6 days post-infection. […]
After 6 days of incubation at 37° C. in a 5% CO2 incubator, the test plates were analyzed by staining with the tetrazolium dye XTT. XTT-tetrazolium is metabolized by the mitochondrial enzymes of metabolically active cells to a soluble formazan product, allowing the rapid quantitative analysis of the inhibition of HIV-induced cell killing by anti-HIV test substances. […]
XTT solution was prepared daily as a stock of 1 mg/ml in PBS. […] Adhesive plate sealers were used in place of the lids, the sealed plate was inverted several times to mix the soluble formazan product and the plate was read spectrophotometrically at A450 nm with a Molecular Devices Vmax plate reader.
A general note: Formazan colour is commonly taken as a measure of viable cells.

In series [2] the test system is low passage, clinical strains of HIV-1. The series is described as follows: Anti-HIV activity in fresh human peripheral blood mononuclear cells. The settings on record: fresh human PBMC; varies from strain to strain. The series is classed as cell-based. As to the method: In another experiment, the anti-HIV activity of Oligos 12, 32, and 41 was evaluated against a variety of low passage, clinical strains of HIV-1 in fresh human peripheral blood mononuclear cells. These strains include viruses obtained from pediatric patients attending the Children's Hospital University of Alabama at Birmingham as well as viruses representative of the various HIV-1 clades found throughout the world, shown below in TABLE 4.
Fresh human peripheral blood lymphocytes (PBL) were isolated from voluntary Red Cross donors, seronegative for HIV and HBV. Leukophoresed blood was diluted 1:1 with Dulbecco's phosphate buffered saline (PBS), layered over 14 ml of Ficoll-Hypaque density gradient in a 50 ml centrifuge tube. Tubes were then centrifuged for 30 minutes at 600×g. Banded PBLs were gently aspirated from the resulting interface and subsequently washed 2× with PBS by low speed centrifugation. After final wash, cells were enumerated by trypan blue exclusion and re-suspended at 1×10^7/ml in RPMI 1640 with 15% Fetal Bovine Serum (FBS), 2 mM L-glutamine, […] PHA-P and allowed to incubate for 48–72 hours at 37° C. After incubation, PBLs were centrifuged and reset in RPMI 1640 with 15% FBS, 2 mM L-glutamine, 100 U/ml penicillin, 100 μg/ml streptomycin, 10 μg/ml gentamycin, and 20 U/ml recombinant human IL-2. PBLs were maintained in this medium at a concentration of 1–2×10^6/ml with bi-weekly medium changes, until use in assay protocol. […]
In the standard PBL assay (MOI: 0.2), the assay was ended on day 7 following collection of cell free supernatant samples for reverse transcriptase activity assay. In the low MOI PBL assay (MOI: 0.02), supernatant samples were collected on day 6, day 11, and day 14 post-infection and analyzed for RT activity. […] Opti-Fluor O was added to each sample and incorporated radioactivity was quantified utilizing a liquid scintillation counter, (Wallac 1450 Microbetaplus, Gaithersburg, Md.).

Turning to “Oligo 41: oligonucleotide having SEQ ID NO:6; sequence not printed, not listed in TABLE 2 (UCGCACCCATCTCTCTCCUUC; chemistry not given here)”, the “activity against HIV-1” value in series [1] is “active”. The “activity against low passage clinical T-tropic strains of HIV-1” value in series [2] is “active”.
